The record followed here is ChEMBL document CHEMBL1130804, “Potent antimitotic and cell growth inhibitory properties of substituted chalcones” (Bioorg Med Chem Lett, 1998).

For assay [1], the system named is K562. As to the kind of experiment: Compound was evaluated for cytotoxic activity against K562 human chronic myelogenous leukemia cell line using MTT assay. Type of assay: functional, cell-based. On the technique in general: Tetrazolium assays rely on reduction of a dye to a coloured formazan, in cell work by metabolically active cells.
The target of assay [2] is Tubulin alpha chain (Sus scrofa, UniProt P02550). The assay is described as follows: Tested for inhibition of polymerization of tubulin.
Sequence of Tubulin alpha chain (P02550 whole entry, looked up): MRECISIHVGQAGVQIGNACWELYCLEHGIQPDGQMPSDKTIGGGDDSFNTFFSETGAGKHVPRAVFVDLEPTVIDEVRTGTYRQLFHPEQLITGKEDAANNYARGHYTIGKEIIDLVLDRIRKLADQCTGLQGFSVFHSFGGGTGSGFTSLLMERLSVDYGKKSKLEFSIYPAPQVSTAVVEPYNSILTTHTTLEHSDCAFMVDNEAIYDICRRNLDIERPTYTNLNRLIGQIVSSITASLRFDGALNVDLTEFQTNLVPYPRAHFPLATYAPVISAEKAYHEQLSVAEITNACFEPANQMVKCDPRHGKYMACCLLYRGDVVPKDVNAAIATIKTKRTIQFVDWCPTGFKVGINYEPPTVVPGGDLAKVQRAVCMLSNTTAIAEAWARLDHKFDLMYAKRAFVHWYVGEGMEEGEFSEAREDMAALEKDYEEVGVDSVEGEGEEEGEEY
In assay [3] the test system is HeLa. As to the kind of experiment: Compound was evaluated for cytotoxic activity against HeLa S3 cell line. The assay is classed as functional, cell-based. As to conditions: Homo sapiens.

In turn, `COc1cc(C(=O)/C=C/c2ccc3c(c2)OCCO3)cc(OC)c1OC` yielded a half-inhibitory concentration (IC50) in assay [1] of 80 nM.

With `COc1cc(C(=O)/C(C)=C/c2ccc3c(c2)OCO3)cc(OC)c1OC`, inhibition in assay [1] was half-maximal at 14 nM (IC50).

In the case of `COc1cc(C(=O)/C=C/c2ccc3c(c2)OCO3)cc(OC)c1OC`, 300 nM corresponded to half-maximal inhibition in assay [1] (IC50).

In assay [1], `COc1ccc(OC)c(C(=O)/C=C/c2ccc(N(C)C)cc2)c1` registered an IC50 of 36 nM.

With `COc1ccc(OC)c(C(=O)/C(C)=C/c2ccc(N(C)C)cc2)c1`, the IC50 in assay [2] was determined as 12 nM; in assay [1], 11 nM.

`COc1ccc(/C=C(\C)C(=O)c2cc(OC)c(OC)c(OC)c2)cc1O`: the IC50 came out at 0.62 nM in assay [3] and 0.21 nM in assay [1].

The compound `COc1cc(C(=O)/C(C)=C/c2ccc3c(c2)OCCO3)cc(OC)c1OC` gave an IC50 in assay [1] of 12 nM.

`COc1ccc(/C=C/C(=O)c2cc(OC)c(OC)c(OC)c2)cc1O` yielded an IC50 in assay [1] of 4.3 nM.

Usually IC50 stands for the midpoint of a concentration-inhibition curve.
